In patent US9133158B2, “Bicyclic dihydroisoquinoline-1-one derivatives” (Hoffmann-La Roche Inc., priority 2011, dated 2015):

Key:
human CYP11B1 = biological target: T1, human CYP11B1 (Homo sapiens, UniProt P15538); experiment: G-402 cellular enzyme assay, human CYP11B1 (cortisol release, HTRF); type: cell-based; conditions: G-402 cells, 1 μM Deoxycortisol
T1 construct: expressed in transfected cells
T1 sequence (P15538 25-503): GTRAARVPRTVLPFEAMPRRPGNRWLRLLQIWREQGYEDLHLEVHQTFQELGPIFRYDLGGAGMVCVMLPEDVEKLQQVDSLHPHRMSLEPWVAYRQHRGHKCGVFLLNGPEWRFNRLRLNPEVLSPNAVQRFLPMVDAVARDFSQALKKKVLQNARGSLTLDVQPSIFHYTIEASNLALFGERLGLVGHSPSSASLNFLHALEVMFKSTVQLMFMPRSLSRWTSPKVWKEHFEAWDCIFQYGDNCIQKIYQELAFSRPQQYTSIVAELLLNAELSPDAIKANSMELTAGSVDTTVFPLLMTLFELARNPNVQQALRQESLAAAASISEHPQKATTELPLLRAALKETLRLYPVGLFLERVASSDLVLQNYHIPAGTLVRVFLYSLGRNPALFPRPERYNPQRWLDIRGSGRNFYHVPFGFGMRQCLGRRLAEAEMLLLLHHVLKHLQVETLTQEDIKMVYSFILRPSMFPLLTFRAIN
Outline: (§1)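 G-402 cells stably expressing human CYP11B1 or CYP11B2, in DMEM/F12 with 2.5% charcoal-treated FCS, were incubated 16 h with test compound and substrate (1 μM 11-deoxycortisol for CYP11B1; 1 μM deoxycorticosterone for CYP11B2). Cortisol or aldosterone in supernatant was quantified by HTRF; EC50 from 4-parameter MMF fit.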

human CYP11B2 = biological target: T2, human CYP11B2 (Homo sapiens, UniProt P19099); experiment: G-402 cellular enzyme assay, human CYP11B2 (aldosterone release, HTRF); type: cell-based; conditions: G-402 cells, 1 μM Deoxycorticosterone
T2 construct: expressed in transfected cells
T2 sequence (P19099 25-503): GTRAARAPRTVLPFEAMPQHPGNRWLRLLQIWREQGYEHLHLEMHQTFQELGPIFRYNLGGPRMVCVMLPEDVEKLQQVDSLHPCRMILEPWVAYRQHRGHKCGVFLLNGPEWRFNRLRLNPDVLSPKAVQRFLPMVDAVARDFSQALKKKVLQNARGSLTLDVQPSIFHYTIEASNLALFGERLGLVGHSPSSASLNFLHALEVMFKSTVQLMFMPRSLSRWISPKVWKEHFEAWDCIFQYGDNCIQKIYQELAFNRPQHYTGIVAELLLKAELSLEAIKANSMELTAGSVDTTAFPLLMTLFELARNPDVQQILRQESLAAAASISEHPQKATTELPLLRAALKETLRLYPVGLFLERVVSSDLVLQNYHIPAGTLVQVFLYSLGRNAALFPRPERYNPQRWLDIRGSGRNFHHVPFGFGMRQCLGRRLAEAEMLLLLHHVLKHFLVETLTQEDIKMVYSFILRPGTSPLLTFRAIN
Outline: as §1

| SMILES | EC50 (human CYP11B1) [nM] | EC50 (human CYP11B2) [nM] |
| --- | --- | --- |
| O=C1c2ccc(Cl)cc2CCN1c1cncc(Cn2cccn2)c1 [Example 160, 6-Chloro-2-(5-pyrazol-1-ylmethyl-pyridin-3-yl)-3,4-dihydro-2H-isoquinolin-1-one] | 418 | 36.1 |
| CCCc1nccn1Cc1cncc(N2CCc3cc(Cl)ccc3C2=O)c1 [Example 161, 6-Chloro-2-[5-(2-propyl-imidazol-1-ylmethyl)-pyridin-3-yl]-3,4-dihydro-2H-isoquinolin-1-one] | 341 | 101 |
| CCOC(=O)c1nccn1Cc1cncc(N2CCc3cc(Cl)ccc3C2=O)c1 [Example 162, 1-[5-(6-Chloro-1-oxo-3,4-dihydro-1H-isoquinolin-2-yl)-pyridin-3-ylmethyl]-1H-imidazole-2-carboxylic acid ethyl ester] | 2000 | 187 |
| O=C1c2ccc(Cl)cc2CCN1c1cncc(Cn2ccnc2CO)c1 [Example 163, 6-Chloro-2-[5-(2-hydroxymethyl-imidazol-1-ylmethyl)-pyridin-3-yl]-3,4-dihydro-2H-isoquinolin-1-one] | 3360 | 215 |
| O=C1c2ccc(Cl)cc2CCN1c1cncc(CNC2COC2)c1 [Example 164, 6-Chloro-2-[5-(oxetan-3-ylaminomethyl)-pyridin-3-yl]-3,4-dihydro-2H-isoquinolin-1-one] | 862 | 141 |
| O=C1c2ccc(Cl)cc2CCN1c1cncc(Cn2nccn2)c1 [Example 174, 6-Chloro-2-(5-[1,2,3]triazol-2-ylmethyl-pyridin-3-yl)-3,4-dihydro-2H-isoquinolin-1-one] | 211 | 25.8 |
| O=C1c2ccc(Cl)cc2CCN1c1cncc(Cn2ccnn2)c1 [Example 175, 6-Chloro-2-(5-[1,2,3]triazol-1-ylmethyl-pyridin-3-yl)-3,4-dihydro-2H-isoquinolin-1-one] | 656 | 105 |
| O=C1c2ccc(Cl)cc2CCN1c1cncc(Cn2ccnc2Cl)c1 [Example 176, 6-Chloro-2-[5-(2-chloro-imidazol-1-ylmethyl)-pyridin-3-yl]-3,4-dihydro-2H-isoquinolin-1-one] | 57.8 | 9.8 |
| Cc1nncn1Cc1cncc(N2CCc3cc(Cl)ccc3C2=O)c1 [Example 177, 6-Chloro-2-[5-(3-methyl-[1,2,4]triazol-4-ylmethyl)-pyridin-3-yl]-3,4-dihydro-2H-isoquinolin-1-one] | 6310 | 412 |
| O=C1c2ccc(Cl)cc2CCN1c1cncc(Cn2cnnc2)c1 [Example 179, 6-Chloro-2-(5-[1,2,4]triazol-4-ylmethyl-pyridin-3-yl)-3,4-dihydro-2H-isoquinolin-1-one] | 7720 | 620 |
| Cc1nc2ccccc2n1Cc1cncc(N2CCc3cc(Cl)ccc3C2=O)c1 [Example 181, 6-Chloro-2-[5-(2-methyl-benzoimidazol-1-ylmethyl)-pyridin-3-yl]-3,4-dihydro-2H-isoquinolin-1-one] | 1970 | 217 |
| O=C1c2ccc(Cl)cc2CCN1c1cncc(Cn2ncc3ccccc32)c1 [Example 182, 6-Chloro-2-(5-indazol-1-ylmethyl-pyridin-3-yl)-3,4-dihydro-2H-isoquinolin-1-one] | 306 | 27.5 |
| O=C1c2ccc(Cl)cc2CCN1c1cncc(Cn2cc3ccccc3n2)c1 [Example 183, 6-Chloro-2-(5-indazol-2-ylmethyl-pyridin-3-yl)-3,4-dihydro-2H-isoquinolin-1-one] | 385 | 29.9 |
| O=C1c2ccc(Cl)cc2CCN1c1cncc(Cn2ccc3ccc(F)cc32)c1 [Example 184, 6-Chloro-2-[5-(6-fluoro-indol-1-ylmethyl)-pyridin-3-yl]-3,4-dihydro-2H-isoquinolin-1-one] | 271 | 17.7 |
| O=C1c2ccc(Cl)cc2CCN1c1cncc(Cn2ccc3cccc(F)c32)c1 [Example 185, 6-Chloro-2-[5-(7-fluoro-indol-1-ylmethyl)-pyridin-3-yl]-3,4-dihydro-2H-isoquinolin-1-one] | 673 | 66 |

Results, then the compound that gave them:

| EC50 (human CYP11B1) [nM] | EC50 (human CYP11B2) [nM] | SMILES |
| --- | --- | --- |
| 4460 | 209 | CN1CCN(Cc2cncc(N3CCc4cc(Cl)ccc4C3=O)c2)C1=O [Example 159, 6-Chloro-2-[5-(3-methyl-2-oxo-imidazolidin-1-ylmethyl)-pyridin-3-yl]-3,4-dihydro-2H-isoquinolin-1-one] |
| 60.4 | 3.5 | O=C1c2ccc(Cl)cc2CCN1c1cncc(CN2CCN(CCO)CC2)c1 [Example 165, 6-Chloro-2-{5-[4-(2-hydroxy-ethyl)-piperazin-1-ylmethyl]-pyridin-3-yl}-3,4-dihydro-2H-isoquinolin-1-one] |
| 96.3 | 14.1 | CC(C)N1CCN(Cc2cncc(N3CCc4cc(Cl)ccc4C3=O)c2)CC1 [Example 166, 6-Chloro-2-[5-(4-isopropyl-piperazin-1-ylmethyl)-pyridin-3-yl]-3,4-dihydro-2H-isoquinolin-1-one] |
| 168 | 47.9 | CN1CCN(Cc2cncc(N3CCc4cc(Cl)ccc4C3=O)c2)CC1 [Example 167, 6-Chloro-2-[5-(4-methyl-piperazin-1-ylmethyl)-pyridin-3-yl]-3,4-dihydro-2H-isuquinolin-1-one] |
| 47.5 | 3.4 | O=C1c2ccc(Cl)cc2CCN1c1cncc(CN2CCC(F)(F)CC2)c1 [Example 168, 6-Chloro-2-[5-(4,4-difluoro-piperidin-1-ylmethyl)-pyridin-3-yl]-3,4-dihydro-2H-isoquinolin-1-one] |
| 38.1 | 5.2 | O=C1c2ccc(Cl)cc2CCN1c1cncc(CN2CCC(F)(F)C2)c1 [Example 169, 6-Chloro-2-[5-(3,3-difluoro-pyrrolidin-1-ylmethyl)-pyridin-3-yl]-3,4-dihydro-2H-isoquinolin-1-one] |
| 14.6 | 3.5 | O=C1c2ccc(Cl)cc2CCN1c1cncc(CN2CCC3(COC3)C2)c1 [Example 170, 6-Chloro-2-[5-(2-oxa-6-aza-spiro[3.4]oct-6-ylmethyl)-pyridin-3-yl]-3,4-dihydro-2H-isoquinolin-1-one] |
| 88.9 | 17.2 | O=C1c2ccc(Cl)cc2CCN1c1cncc(CN2CC3(COC3)C2)c1 [Example 171, 6-Chloro-2-[5-(2-oxa-6-aza-spiro[3.3]hept-6-ylmethyl)-pyridin-3-yl]-3,4-dihydro-2H-isoquinolin-1-one] |
| 144 | 22.3 | O=C1c2ccc(Cl)cc2CCN1c1cncc(CN2CCCC(F)(F)C2)c1 [Example 172, 6-Chloro-2-[5-(3,3-difluoro-piperidin-1-ylmethyl)-pyridin-3-yl]-3,4-dihydro-2H-isoquinolin-1-one] |
| 12300 | 334 | O=C1CCCCN1Cc1cncc(N2CCc3cc(Cl)ccc3C2=O)c1 [Example 173, 6-Chloro-2-[5-(2-oxo-piperidin-1-ylmethyl)-pyridin-3-yl]-3,4-dihydro-2H-isoquinolin-1-one] |
| 802 | 123 | O=C1c2ccc(Cl)cc2CCN1c1cncc(Cn2cncn2)c1 [Example 180, 6-Chloro-2-(5-[1,2,4]triazol-1-ylmethyl-pyridin-3-yl)-3,4-dihydro-2H-isoquinolin-1-one] |
